Experimental data taken from PubChem BioAssay AID2060497 (Molecular Pharmacology Branch, DTP, NCI, 2025).

Tested on: 317291-083-R-J1-PDC complex spheroids, viability
Assay: Anticancer human tumor 317291-083-R-J1-PDC patient-derived soft tissue sarcoma cell line growth inhibition [GQUAD]
Details: for IC50: curve of first compound; for viability, T/C: stronger effect = lower value
Summary of the method: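 Viability of tumor cells grown as complex spheroids with endothelial and stromal cells, exposed to drug combinations. Top concentration at or near clinical Cmax (else 10 microM), diluted in half-log increments.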

[1] = second compound 0.0316 µM, first compound 0.0316 µM
[2] = second compound 0.0316 µM, first compound 0.1 µM
[3] = second compound 0.0316 µM, first compound 0.316 µM
[4] = second compound 0.0316 µM, first compound 1 µM
[5] = second compound 0.0316 µM, first compound 3.16 µM
[6] = second compound 0.0316 µM, first compound 10 µM
[7] = second compound 0.1 µM, first compound 0.0316 µM
[8] = second compound 0.1 µM, first compound 0.1 µM
[9] = second compound 0.1 µM, first compound 0.316 µM
[10] = second compound 0.1 µM, first compound 1 µM
[11] = second compound 0.1 µM, first compound 3.16 µM
[12] = second compound 0.1 µM, first compound 10 µM
[13] = second compound 0.316 µM, first compound 0.0316 µM
[14] = second compound 0.316 µM, first compound 0.1 µM
[15] = second compound 0.316 µM, first compound 0.316 µM
[16] = second compound 0.316 µM, first compound 1 µM
[17] = second compound 0.316 µM, first compound 3.16 µM
[18] = second compound 0.316 µM, first compound 10 µM
[19] = second compound 1 µM, first compound 0.0316 µM
[20] = second compound 1 µM, first compound 0.1 µM
[21] = second compound 1 µM, first compound 0.316 µM
[22] = second compound 1 µM, first compound 1 µM
[23] = second compound 1 µM, first compound 3.16 µM
[24] = second compound 1 µM, first compound 10 µM
[25] = second compound 3.16 µM, first compound 0.0316 µM
[26] = second compound 3.16 µM, first compound 0.1 µM
[27] = second compound 3.16 µM, first compound 0.316 µM
[28] = second compound 3.16 µM, first compound 1 µM
[29] = second compound 3.16 µM, first compound 3.16 µM
[30] = second compound 3.16 µM, first compound 10 µM
[31] = second compound 10 µM, first compound 0.0316 µM
[32] = second compound 10 µM, first compound 0.1 µM
[33] = second compound 10 µM, first compound 0.316 µM
[34] = second compound 10 µM, first compound 1 µM
[35] = second compound 10 µM, first compound 3.16 µM
[36] = second compound 10 µM, first compound 10 µM
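Also: spheroids exposed to compounds for one week before readout.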
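For viability, T/C in this document: percent viability relative to DMSO vehicle wells taken as 100%.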

Work on `COc1cccc2c1C(=O)c1c(O)c3c(c(O)c1C2=O)CC(O)(C(=O)CO)CC3OC1CC(N)C(O)C(C)O1` (stereo unspecified) + CN(C)c1ccc(Nc2c3ccc(NC(=O)CCN4CCCC4)cc3nc3cc(NC(=O)CCN4CCCC4)ccc23)cc1 yielded an IC50 (second compound 0.0316 µM) of 71.7 nM, an IC50 (second compound 0.1 µM) of 65.3 nM and an IC50 (second compound 0.316 µM) of 57.4 nM. The IC50 (second compound 1 µM) was less than 31.6 nM, the IC50 (second compound 3.16 µM) was less than 31.6 nM and the IC50 (second compound 10 µM) was less than 31.6 nM. The viability, T/C [1] was 82.7%, the viability, T/C [2] was 32.4% and the viability, T/C [3] was 21.1%. It also gave a viability, T/C [4] of 13.2%, a viability, T/C [5] of 0.97% and a viability, T/C [6] of 0.41%. The viability, T/C [7] was 64.1%, the viability, T/C [8] was 41.8% and the viability, T/C [9] was 22.2%. It also gave a viability, T/C [10] of 12.1%, a viability, T/C [11] of 1.05% and a viability, T/C [12] of 0.35%. The viability, T/C [13] was 64.2%, the viability, T/C [14] was 35.1% and the viability, T/C [15] was 23.6%. For the same molecule, the viability, T/C [16] was 8.77%, the viability, T/C [17] was 1.59% and the viability, T/C [18] was 0.73%. For the same molecule, the viability, T/C [19] was 29.1%, the viability, T/C [20] was 18.6% and the viability, T/C [21] was 14.9%. It also gave a viability, T/C [22] of 3.06%, a viability, T/C [23] of 0.9% and a viability, T/C [24] of 0.65%. For the same molecule, the viability, T/C [25] was 28.8%, the viability, T/C [26] was 15.1% and the viability, T/C [27] was 12.1%. The viability, T/C [28] was 4.09%, the viability, T/C [29] was 0.51% and the viability, T/C [30] was 0.86%. It also gave a viability, T/C [31] of 9.63%, a viability, T/C [32] of 7.93% and a viability, T/C [33] of 3.54%. The viability, T/C [34] was 1.41%, the viability, T/C [35] was 1.22% and the viability, T/C [36] was 0.51%.

In the case of `Nc1ccn(C2OC(CO)C(O)C2(F)F)c(=O)n1` (stereo unspecified) + CN(C)c1ccc(Nc2c3ccc(NC(=O)CCN4CCCC4)cc3nc3cc(NC(=O)CCN4CCCC4)ccc23)cc1, the IC50 (second compound 0.0316 µM) is reported as 44.5 nM, the IC50 (second compound 0.1 µM) is reported as 37.7 nM and the IC50 (second compound 0.316 µM) is reported as less than 31.6 nM. It also gave an IC50 (second compound 1 µM) of less than 31.6 nM, an IC50 (second compound 3.16 µM) of less than 31.6 nM and an IC50 (second compound 10 µM) of less than 31.6 nM. For the same molecule, the viability, T/C [1] was 62.2%, the viability, T/C [2] was 21.4% and the viability, T/C [3] was 12.5%. It also gave a viability, T/C [4] of 11.5%, a viability, T/C [5] of 13.7% and a viability, T/C [6] of 11.4%. The viability, T/C [7] was 54.9%, the viability, T/C [8] was 23.9% and the viability, T/C [9] was 13.7%. The viability, T/C [10] was 10.9%, the viability, T/C [11] was 10.9% and the viability, T/C [12] was 9.57%. The viability, T/C [13] was 44.9%, the viability, T/C [14] was 27.4% and the viability, T/C [15] was 11.9%. It also gave a viability, T/C [16] of 9.85%, a viability, T/C [17] of 9.6% and a viability, T/C [18] of 8.28%. The viability, T/C [19] was 26.9%, the viability, T/C [20] was 27.8% and the viability, T/C [21] was 10.5%. It also gave a viability, T/C [22] of 7.35%, a viability, T/C [23] of 7.21% and a viability, T/C [24] of 7.95%. The viability, T/C [25] was 15.6%, the viability, T/C [26] was 7.01% and the viability, T/C [27] was 6.98%. It also gave a viability, T/C [28] of 4.89%, a viability, T/C [29] of 4.18% and a viability, T/C [30] of 5.05%. For the same molecule, the viability, T/C [31] was 10.3%, the viability, T/C [32] was 3.73% and the viability, T/C [33] was 1.83%. The viability, T/C [34] was 4.43%, the viability, T/C [35] was 2.4% and the viability, T/C [36] was 2.72%.

In the case of `O=c1[nH]cc(F)c(=O)[nH]1` + CN(C)c1ccc(Nc2c3ccc(NC(=O)CCN4CCCC4)cc3nc3cc(NC(=O)CCN4CCCC4)ccc23)cc1, the IC50 (second compound 0.0316 µM) is reported as 2320 nM, the IC50 (second compound 0.1 µM) is reported as 2440 nM and the IC50 (second compound 0.316 µM) is reported as 1760 nM. The IC50 (second compound 1 µM) was 31.6 nM, the IC50 (second compound 3.16 µM) was less than 31.6 nM and the IC50 (second compound 10 µM) was less than 31.6 nM. The viability, T/C [1] was 91.6%, the viability, T/C [2] was 83.3% and the viability, T/C [3] was 101%. For the same molecule, the viability, T/C [4] was 74.3%, the viability, T/C [5] was 43.5% and the viability, T/C [6] was 38.5%. For the same molecule, the viability, T/C [7] was 110%, the viability, T/C [8] was 106% and the viability, T/C [9] was 103%. The viability, T/C [10] was 69.7%, the viability, T/C [11] was 46.2% and the viability, T/C [12] was 36.6%. For the same molecule, the viability, T/C [13] was 89.4%, the viability, T/C [14] was 74.7% and the viability, T/C [15] was 83.2%. It also gave a viability, T/C [16] of 56.4%, a viability, T/C [17] of 42.1% and a viability, T/C [18] of 29.5%. For the same molecule, the viability, T/C [19] was 53.2%, the viability, T/C [20] was 43.2% and the viability, T/C [21] was 51.1%. For the same molecule, the viability, T/C [22] was 21.3%, the viability, T/C [23] was 29.4% and the viability, T/C [24] was 23.3%. For the same molecule, the viability, T/C [25] was 36.6%, the viability, T/C [26] was 27.3% and the viability, T/C [27] was 35.1%. The viability, T/C [28] was 26.8%, the viability, T/C [29] was 27.2% and the viability, T/C [30] was 22.6%. It also gave a viability, T/C [31] of 7.27%, a viability, T/C [32] of 5.52% and a viability, T/C [33] of 17%. For the same molecule, the viability, T/C [34] was 11.3%, the viability, T/C [35] was 9.24% and the viability, T/C [36] was 7.86%.
